From patent US20250025443A1, “COMPOUNDS AND METHODS FOR TREATING CORONA VIRUSES” (CLEAR CREEK BIO, INC., priority 2021, published 2025)
pIC50: −log10 of the molar value.

target: SARS-CoV-2 Papain-Like Protease (PLpro) (Severe acute respiratory syndrome coronavirus 2 (2019-nCoV) (SARS-CoV-2), UniProt P0DTD1); assay: biochemical; conditions: PLpro IC50, SARS-CoV-2 PLpro enzymatic fluorescence assay

Row | Structure (SMILES) | pIC50
1 | Cc1cc2c(CCN)c[nH]c2cc1C(=O)NC1(c2cccc3ccccc23)CC1 [Compound 292, 3-(2-Aminoethyl)-5-methyl-N-(1-(naphthalen-1-yl)cyclopropyl)-1H-indole-6-carboxamide] | 6.00 to 7.00

same assay, conditions: PLpro enzymatic fluorescence assay; class symbols; read-out: PLpro IC50

Row | Structure (SMILES) | pIC50
2 | Cc1ccc(OCCN(C)C)cc1C(=O)NC1(c2cccc(O)c2)CC1 [Compound 306, 5-(2-(Dimethylamino)ethoxy)-N-(1-(3-hydroxyphenyl)cyclopropyl)-2-methylbenzamide] | < 5.30

same assay, conditions: SARS-CoV-2 PLpro enzymatic fluorescence assay; read-out: PLpro IC50

Row | Structure (SMILES) | pIC50
3 | Cc1ccc(OCCN2CCC(F)(F)CC2)cc1C(=O)NC1(c2cccc3ccccc23)CC1 [Compound 284, 5-(2-(4,4-Difluoropiperidin-1-yl)ethoxy)-2-methyl-N-(1-(naphthalen-1-yl)cyclopropyl)benzamide] | 6.00 to 7.00
4 | Cc1ccc(OCC(N)=O)cc1C(=O)NC1(c2cccc3ccccc23)CC1 [Compound 285, 5-(2-Amino-2-oxoethoxy)-2-methyl-N-(1-(naphthalen-1-yl)cyclopropyl)benzamide] | 6.00 to 7.00
5 | Cc1ccc(OCC2COCCN2)cc1C(=O)NC1(c2cccc3ccccc23)CC1 (stereo not shown) [Compound 286, 2-Methyl-5-(morpholin-3-ylmethoxy)-N-(1-(naphthalen-1-yl)cyclopropyl)benzamide] | > 7.00
6 | Cc1ccc(OCC2CCCCN2C)cc1C(=O)NC1(c2cccc3ccccc23)CC1 (stereo not shown) [Compound 288, 2-Methyl-5-((1-methylpiperidin-2-yl)methoxy)-N-(1-(naphthalen-1-yl)cyclopropyl)benzamide] | 6.00 to 7.00
7 | Cc1ccc(OC2CCCN(C)C2)cc1C(=O)NC1(c2cccc3ccccc23)CC1 (stereo not shown) [Compound 289, 2-Methyl-5-((1-methylpiperidin-3-yl)oxy)-N-(1-(naphthalen-1-yl)cyclopropyl)benzamide] | 6.00 to 7.00
8 | Cc1cc2ccn(C3CN(C)C3)c2cc1C(=O)NC1(c2cccc3ccccc23)CC1 [Compound 290, 5-Methyl-1-(1-methylazetidin-3-yl)-N-(1-(naphthalen-1-yl)cyclopropyl)-1H-indole-6-carboxamide] | > 7.00
9 | Cc1ccc(OCCN(C)C)cc1C(=O)NC1(c2cccc(-c3ccccc3)c2)CC1 [Compound 291, N-(1-([1,1′-Biphenyl]-3-yl)cyclopropyl)-5-(2-(dimethylamino)ethoxy)-2-methylbenzamide] | 6.00 to 7.00
10 | Cc1ccc(OC2CCCCN(C)C2)cc1C(=O)NC1(c2cccc3ccccc23)CC1 (stereo not shown) [Compound 293, 2-methyl-5-((1-methylazepan-3-yl)oxy)-N-(1-(naphthalen-1-yl)cyclopropyl)benzamide] | 6.00 to 7.00
11 | Cc1ccc(OCCN(C)C)cc1C(=O)NC1(c2ccc(O)cc2)CC1 [Compound 294, 5-(2-(Dimethylamino)ethoxy)-N-(1-(4-hydroxyphenyl)cyclopropyl)-2-methylbenzamide] | < 5.30
12 | Cc1cc2ccn(CC3COC3)c2cc1C(=O)NC1(c2cccc3ccccc23)CC1 [Compound 295, 5-Methyl-N-(1-(naphthalen-1-yl)cyclopropyl)-1-(oxetan-3-ylmethyl)-1H-indole-6-carboxamide] | 6.00 to 7.00
13 | Cc1cc2ccn(C3CCC3)c2cc1C(=O)NC1(c2cccc3ccccc23)CC1 [Compound 296, 1-Cyclobutyl-5-methyl-N-(1-(naphthalen-1-yl)cyclopropyl)-1H-indole-6-carboxamide] | 6.00 to 7.00
14 | Cc1cc2c(cc1C(=O)NC1(c3cccc4ccccc34)CC1)NCCN2 [Compound 297, 7-Methyl-N-(1-(naphthalen-1-yl)cyclopropyl)-1,2,3,4-tetrahydroquinoxaline-6-carboxamide] | 6.00 to 7.00
15 | Cc1ccc(OCCN(C)C)cc1C(=O)NC1(c2ccccc2Oc2ccccc2)CC1 [Compound 298, 5-(2-(Dimethylamino)ethoxy)-2-methyl-N-(1-(2-phenoxyphenyl)cyclopropyl)benzamide] | 5.30 to 6.00
16 | Cc1ccc(OCCN(C)C)cc1C(=O)NC1(c2cccc3cnccc23)CC1 [Compound 299, 5-(2-(Dimethylamino)ethoxy)-N-(1-(isoquinolin-5-yl)cyclopropyl)-2-methylbenzamide] | > 7.00
17 | Cc1ccc(OCCN2CC(F)C2)cc1C(=O)NC1(c2cccc3ccccc23)CC1 [Compound 300, 5-(2-(3-Fluoroazetidin-1-yl)ethoxy)-2-methyl-N-(1-(naphthalen-1-yl)cyclopropyl)benzamide] | > 7.00
18 | Cc1ccc(OCCN(C)C)cc1C(=O)NC1(c2cccc3ncccc23)CC1 [Compound 301, 5-(2-(Dimethylamino)ethoxy)-2-methyl-N-(1-(quinolin-5-yl)cyclopropyl)benzamide] | > 7.00
19 | Cc1ccc(OCC2COCCN2C)cc1C(=O)NC1(c2cccc3ccccc23)CC1 (stereo not shown) [Compound 302, 2-Methyl-5-((4-methylmorpholin-3-yl)methoxy)-N-(1-(naphthalen-1-yl)cyclopropyl)benzamide] | 6.00 to 7.00
20 | COc1ccc(OCCN(C)C)cc1C(=O)NC1(c2cccc3ccccc23)CC1 [Compound 303, 5-(2-(Dimethylamino)ethoxy)-2-methoxy-N-(1-(naphthalen-1-yl)cyclopropyl)benzamide] | < 5.30
21 | Cc1cc2cnn(C3CNC3)c2cc1C(=O)NC1(c2cccc3ccccc23)CC1 [Compound 304, 1-(Azetidin-3-yl)-5-methyl-N-(1-(naphthalen-1-yl)cyclopropyl)-1H-indazole-6-carboxamide] | > 7.00

Row | Structure (SMILES) | pIC50
22 | Cc1cc2cn(C3CNC3)nc2cc1C(=O)NC1(c2cccc3ccccc23)CC1 [Compound 305, 2-(Azetidin-3-yl)-5-methyl-N-(1-(naphthalen-1-yl)cyclopropyl)-2H-indazole-6-carboxamide] | 6.00 to 7.00
23 | Cc1ccc(OCCN(C)C)cc1C(=O)NC1(c2ccc(OCc3ccccc3)cc2)CC1 [Compound 307, N-(1-(4-(Benzyloxy)phenyl)cyclopropyl)-5-(2-(dimethylamino)ethoxy)-2-methylbenzamide] | < 5.30
24 | Cc1ccc(OCCN(C)C)cc1C(=O)NC1(c2cccc(OCc3ccccc3)c2)CC1 [Compound 308, N-(1-(3-(Benzyloxy)phenyl)cyclopropyl)-5-(2-(dimethylamino)ethoxy)-2-methylbenzamide] | < 5.30
25 | Cc1ccc(OC[C@H]2CCN2C)cc1C(=O)NC1(c2cccc3ccccc23)CC1 [Compound 309, (R)-2-Methyl-5-((1-methylazetidin-2-yl)methoxy)-N-(1-(naphthalen-1-yl)cyclopropyl)benzamide] | > 7.00
26 | Cc1ccc(OC[C@@H]2CCN2C)cc1C(=O)NC1(c2cccc3ccccc23)CC1 [Compound 310, (S)-2-Methyl-5-((1-methylazetidin-2-yl)methoxy)-N-(1-(naphthalen-1-yl)cyclopropyl)benzamide] | > 7.00
27 | Cc1ccc(OCCN(C)C)c(F)c1C(=O)NC1(c2cccc3ccccc23)CC1 [Compound 311, 3-(2-(Dimethylamino)ethoxy)-2-fluoro-6-methyl-N-(1-(naphthalen-1-yl)cyclopropyl)benzamide] | 6.00 to 7.00
28 | Cc1ccc(CC(N)=O)cc1C(=O)NC1(c2cccc3ccccc23)CC1 [Compound 312, 5-(2-Amino-2-oxoethyl)-2-methyl-N-(1-(naphthalen-1-yl)cyclopropyl)benzamide] | 6.00 to 7.00
29 | Cc1ccc(CC#N)cc1C(=O)NC1(c2cccc3ccccc23)CC1 [Compound 313, 5-(Cyanomethyl)-2-methyl-N-(1-(naphthalen-1-yl)cyclopropyl)benzamide] | 6.00 to 7.00
30 | CCN1CCC1COc1ccc(C)c(C(=O)NC2(c3cccc4ccccc34)CC2)c1 (stereo not shown) [Compound 314, 5-((1-Ethylazetidin-2-yl)methoxy)-2-methyl-N-(1-(naphthalen-1-yl)cyclopropyl)benzamide] | > 7.00
31 | Cc1ccc(OCCNc2ccccc2)cc1C(=O)NC1(c2cccc3ccccc23)CC1 [Compound 315, 2-Methyl-N-(1-(naphthalen-1-yl)cyclopropyl)-5-(2-(phenylamino)ethoxy)benzamide] | 5.30 to 6.00
32 | Cc1ccc(OCCCN)cc1C(=O)NC1(c2cccc3ccccc23)CC1 [Compound 316, 5-(3-Aminopropoxy)-2-methyl-N-(1-(naphthalen-1-yl)cyclopropyl)benzamide] | 6.00 to 7.00
33 | Cc1ccc(OCCN(C)C)cc1C(=O)NC1(c2cccc(C)c2Br)CC1 [Compound 317, N-(1-(2-Bromo-3-methylphenyl)cyclopropyl)-5-(2-(dimethylamino)ethoxy)-2-methylbenzamide] | 6.00 to 7.00
34 | Cc1ccc(OCCN(C)C)cc1C(=O)NC1(c2cccc(C)c2C)CC1 [Compound 318, 5-(2-(Dimethylamino)ethoxy)-N-(1-(2,3-dimethylphenyl)cyclopropyl)-2-methylbenzamide] | 5.30 to 6.00
35 | Cc1ccc(OCCN(C)C)cc1C(=O)NC1(c2cccc3cc(F)ccc23)CC1 [Compound 319, 5-(2-(Dimethylamino)ethoxy)-N-(1-(6-fluoronaphthalen-1-yl)cyclopropyl)-2-methylbenzamide] | > 7.00
36 | COc1cc(C2(NC(=O)c3cc(OCCN(C)C)ccc3C)CC2)c2ccccc2c1 [Compound 320, 5-(2-(Dimethylamino)ethoxy)-N-(1-(3-methoxynaphthalen-1-yl)cyclopropyl)-2-methylbenzamide] | > 7.00
37 | Cc1ccc(OCCN(C)C)cc1C(=O)NC1(c2ccccc2C(F)(F)F)CC1 [Compound 321, 5-(2-(Dimethylamino)ethoxy)-2-methyl-N-(1-(2-(trifluoromethyl)phenyl)cyclopropyl)benzamide] | 6.00 to 7.00
38 | Cc1ccc(OCC(N)Cc2ccccc2)cc1C(=O)NC1(c2cccc3ccccc23)CC1 (stereo not shown) [Compound 322, 5-(2-Amino-3-phenylpropoxy)-2-methyl-N-(1-(naphthalen-1-yl)cyclopropyl)benzamide] | > 7.00
39 | Cc1ccc(OCC2CCN2C(C)C)cc1C(=O)NC1(c2cccc3ccccc23)CC1 (stereo not shown) [Compound 323, 5-((1-Isopropylazetidin-2-yl)methoxy)-2-methyl-N-(1-(naphthalen-1-yl)cyclopropyl)benzamide] | > 7.00
40 | Cc1ccc(OCC(C)N)cc1C(=O)NC1(c2cccc3ccccc23)CC1 (stereo not shown) [Compound 324, 5-(2-Aminopropoxy)-2-methyl-N-(1-(naphthalen-1-yl)cyclopropyl)benzamide] | > 7.00
